Data from US20210038681A1, “PHARMACEUTICAL COMPOSITION FOR TREATING VIRAL HEPATITIS C” (priority 2018, published 2021).
Like-named read-outs stand apart in the source and are kept apart here.

Experiments:
[1] = test system: HCV 1a Wild-type replicon; assay: microbe, parasite or virus in culture; settings: Hepatitis C virus, Huh-7, read-out: Mean EC50 (nM) ± SD
[2] = test system: HCV genotype 2a NS5A replicon cells; assay: Standard 3-day HCV replicon assay; type: cell-based; settings: Hepatitis C virus, 72 h
[3] = test system: Wild-type HCV 1b replicon; type: cell-based; settings: Hepatitis C virus, read-out: Mean EC50 (nM)
HeLa cells = settings: HeLa H1A cells, 10,000 nM
[4] = test system: HCV genotype 1a replicon cells; assay: Standard 3-day HCV replicon assay; type: cell-based; settings: Hepatitis C virus, 72 h, 3 days, 5% fetal bovine serum
[5] = test system: influenza B virus (Flu-B); assay: Virus-cell protection assay; type: cell-based; settings: cell line MDCK
[6] = test system: HCV genotype 5a NS5A replicon cells; assay: Standard 3-day HCV replicon assay; type: cell-based; settings: Hepatitis C virus, 72 h
MDCK cells = settings: MDCK cells, 10,000 nM
[7] = test system: HCV 1b L31V + Y93H replicon; type: cell-based; settings: HCV genotype 1b, variant L31V + Y93H; EC50 relative to WT
Description: (§1) The susceptibility degrees of WT replicons in the transient assay were similar to the values obtained from a cell assay using the stable HCV replicons.

[8] = test system: HCV 2a NS5A F28S replicon; type: cell-based; settings: HCV genotype 2a, variant F28S; EC50 relative to WT
Description: as §1

[9] = test system: HCV 6a NS5A F28S replicon; type: cell-based; settings: HCV genotype 6a, variant F28S; EC50 relative to WT
Description: as §1

[10] = test system: HCV 4a NS5A L30H + Y93H replicon; type: cell-based; settings: HCV genotype 4a, variant L30H + Y93H; EC50 relative to WT
Description: as §1

in vitro [11] = settings: dog, MDCK cells (uninfected)
[12] = test system: human rhinovirus 16 (HRV-16); assay: Virus-cell protection assay; type: cell-based; settings: Rhinovirus A, HRV16; Virus HRV-16, cell line HeLa
[13] = test system: HCV genotype 1b replicon cells; assay: Standard 3-day HCV replicon assay; type: cell-based; settings: Hepatitis C virus, 72 h, 3 days, 5% fetal bovine serum
[14] = test system: HCV 1b L31F + Y93H replicon; assay: microbe, parasite or virus in culture; type: cell-based
Description: as §1

HCV 1a Y93C replicon = assay: microbe, parasite or virus in culture; type: cell-based
Description: as §1

HCV 1b Y93H replicon = assay: microbe, parasite or virus in culture; type: cell-based
Description: as §1

[15] = test system: HCV 4a NS5A Y93H replicon; assay: microbe, parasite or virus in culture; type: cell-based
Description: as §1

HCV 1b L31F replicon = assay: microbe, parasite or virus in culture; type: cell-based
Description: as §1

HCV 3a NS5A WT replicon = assay: microbe, parasite or virus in culture; type: cell-based
Description: as §1

[16] = test system: HCV 4a NS5A P58L replicon; assay: microbe, parasite or virus in culture; type: cell-based
Description: as §1

HCV 6a NS5A WT replicon = assay: microbe, parasite or virus in culture; type: cell-based
Description: as §1

HCV 1a M28T replicon = assay: microbe, parasite or virus in culture; type: cell-based
Description: as §1

[17] = test system: HCV 5a NS5A L31F replicon; assay: microbe, parasite or virus in culture; type: cell-based
Description: as §1

HCV 2a NS5A WT replicon = assay: microbe, parasite or virus in culture; type: cell-based
Description: as §1

[18] = test system: HCV 2a NS5A Y93H replicon; assay: microbe, parasite or virus in culture; type: cell-based
Description: as §1

HCV 1b L31V replicon = assay: microbe, parasite or virus in culture; type: cell-based
Description: as §1

HCV 5a NS5A WT replicon = assay: microbe, parasite or virus in culture; type: cell-based
Description: as §1

HCV 1a Q30K replicon = assay: microbe, parasite or virus in culture; type: cell-based
Description: as §1

[19] = test system: HCV 4a NS5A L30H replicon; assay: microbe, parasite or virus in culture; type: cell-based
Description: as §1

HCV 1a Q30R replicon = assay: microbe, parasite or virus in culture; type: cell-based
Description: as §1

HCV 1b WT replicon = assay: microbe, parasite or virus in culture; type: cell-based
Description: as §1

HCV 1a Y93H replicon = assay: microbe, parasite or virus in culture; type: cell-based
Description: as §1

HCV 1a Y93N replicon = assay: microbe, parasite or virus in culture; type: cell-based
Description: as §1

HCV 1a WT replicon = assay: microbe, parasite or virus in culture; type: cell-based
Description: as §1

HCV 4a NS5A WT replicon = assay: microbe, parasite or virus in culture; type: cell-based
Description: as §1

BVDV, HRV-16, Flu-B = assay: Virus-cell protection assay, all tested viruses; type: cell-based; settings: Bovine viral diarrhea virus isolates and strains, HRV16, all of BVDV, read-out: EC50 against any of the tested viruses
[20] = test system: HCV genotype 6a NS5A replicon cells; assay: Standard 3-day HCV replicon assay; type: cell-based; settings: Hepatitis C virus, 72 h
in vitro [21] = settings: cattle, BT cells (uninfected)
[22] = test system: HCV genotype 3a NS5A replicon cells; assay: Standard 3-day HCV replicon assay; type: cell-based; settings: Hepatitis C virus, 72 h
in vitro [23] = settings: human, HeLa cells (uninfected; HeLa H1A in the text)
[24] = test system: HCV 3a NS5A Y93H replicon cells; type: cell-based; settings: read-out: Mean EC50 (nM) ±SD; HCV genotype 3a, variant Y93H*; replicon cells from cell passage assay
[25] = test system: HCV genotype 4a NS5A replicon cells; assay: Standard 3-day HCV replicon assay; type: cell-based; settings: Hepatitis C virus, 72 h
[26] = test system: bovine viral diarrhea virus (BVDV); assay: Virus-cell protection assay; type: cell-based; settings: Bovine viral diarrhea virus isolates and strains, cell line BT
[27] = test system: HCV genotype 7a NS5A replicon cells; assay: Standard 3-day HCV replicon assay; type: cell-based; settings: Hepatitis C virus, 72 h
[28] = Hepatitis C virus, read-out: Mean EC50 (nM) ±SD

COC(=O)N[C@H](C(=O)N1CCC[C@H]1c1ncc(-c2ccc3cc(-c4ccc5nc([C@@H]6CCCN6C(=O)[C@@H](NC(=O)OC)C(C)C)[nH]c5c4)ccc3c2)[nH]1)C(C)C [ASC16, Ravidasvir]
EC50 [1]: 0.03 nM
EC50 [2]: 0.12 ng/mL
EC90 [2]: 0.38 ng/mL
EC50 ([2]; read-out: EC50 (nM) Mean ± SD): 0.14 ± 0.03 nM
EC90 ([2]; read-out: EC90 (nM) Mean ± SD): 0.45 ± 0.1 nM
EC50 [3]: 0.01 nM
cytotoxicity at the highest test concentration (HeLa cells): significant cytotoxicity
EC50 ([4]; read-out: EC50): 0.09 ng/mL
EC50 ([4]; read-out: EC50 (nM) Mean ± SD): 0.12 ± 0.01 nM
EC90 ([4]; read-out: EC90): 0.24 ng/mL
EC90 ([4]; read-out: EC90 (nM) Mean ± SD): 0.32 ± 0.02 nM
EC50 [5]: > 5000 nM
EC50 [6]: 0.03 ng/mL
EC90 [6]: 0.1 ng/mL
EC50 ([6]; read-out: EC50 (nM) Mean ± SD): 0.04 ± 0.01 nM
EC90 ([6]; read-out: EC90 (nM) Mean ± SD): 0.12 ± 0.02 nM
cytotoxicity at the highest test concentration (MDCK cells): significant cytotoxicity
Fold change [7]: 37,231
Fold change [8]: 4,575
Fold change [9]: 2,146
Fold change [10]: 57,587
CC50 (in vitro [11]): > 5000 nM
EC50 [12]: > 3300 nM
EC50 ([13]; read-out: EC50): 0.015 ng/mL
EC50 ([13]; read-out: EC50 (nM) Mean ± SD): 0.02 ± 0.002 nM
EC90 ([13]; read-out: EC90): 0.02 ng/mL
EC90 ([13]; read-out: EC90 (nM) Mean ± SD): 0.03 ± 0.004 nM
Fold change ([14]; HCV genotype 1b, variant L31F + Y93H, EC50 relative to WT): 2,541
EC50 [14, 28]: 28 ± 5.4 nM
Fold change (HCV 1a Y93C replicon; HCV genotype 1a, variant Y93C, EC50 relative to WT): 169
EC50 (HCV 1a Y93C replicon; [28]): 5 ± 0.4 nM
Fold change (HCV 1b Y93H replicon; HCV genotype 1b, variant Y93H, EC50 relative to WT): 81
EC50 (HCV 1b Y93H replicon; [28]): 0.9 ± 0.06 nM
Fold change ([15]; HCV genotype 4a, variant Y93H, EC50 relative to WT): 210
EC50 [15, 28]: 3.2 ± 0.2 nM
Fold change (HCV 1b L31F replicon; HCV genotype 1b, variant L31F, EC50 relative to WT): 4.0
EC50 (HCV 1b L31F replicon; [28]): 0.05 ± 0.009 nM
Fold change (HCV 3a NS5A WT replicon; HCV genotype 3a, WT, EC50 relative to WT): 1
EC50 (HCV 3a NS5A WT replicon; [28]): 1.2 nM
Fold change ([16]; HCV genotype 4a, variant P58L, EC50 relative to WT): 197
EC50 [16, 28]: 3 ± 0.09 nM
Fold change (HCV 6a NS5A WT replicon; HCV genotype 6a, WT, EC50 relative to WT): 1
EC50 (HCV 6a NS5A WT replicon; [28]): 0.2 ± 0.04 nM
Fold change (HCV 1a M28T replicon; HCV genotype 1a, variant M28T, EC50 relative to WT): 189
EC50 (HCV 1a M28T replicon; [28]): 5.5 ± 2.8 nM
Fold change ([17]; HCV genotype 5a, variant L31F, EC50 relative to WT): 76
EC50 [17, 28]: 6.1 ± 0.8 nM
Fold change (HCV 2a NS5A WT replicon; HCV genotype 2a, WT, EC50 relative to WT): 1
EC50 (HCV 2a NS5A WT replicon; [28]): 0.12 ± 0.06 nM
Fold change ([18]; HCV genotype 2a, variant Y93H, EC50 relative to WT): 816
EC50 [18, 28]: 96 ± 23 nM
Fold change (HCV 1b L31V replicon; HCV genotype 1b, variant L31V, EC50 relative to WT): 85
EC50 (HCV 1b L31V replicon; [28]): 0.9 ± 0.1 nM
Fold change (HCV 5a NS5A WT replicon; HCV genotype 5a, WT, EC50 relative to WT): 1
EC50 (HCV 5a NS5A WT replicon; [28]): 0.08 ± 0.04 nM
Fold change (HCV 1a Q30K replicon; HCV genotype 1a, variant Q30K, EC50 relative to WT): 2,965
EC50 (HCV 1a Q30K replicon; [28]): 87 ± 17 nM
Fold change ([19]; HCV genotype 4a, variant L30H, EC50 relative to WT): 887
EC50 [19, 28]: 14 ± 0.8 nM
Fold change (HCV 1a Q30R replicon; HCV genotype 1a, variant Q30R, EC50 relative to WT): 168
EC50 (HCV 1a Q30R replicon; [28]): 4.9 ± 1.3 nM
Fold change (HCV 1b WT replicon; HCV genotype 1b, WT, EC50 relative to WT): 1
EC50 (HCV 1b WT replicon; [28]): 0.01 ± 0.003 nM
Fold change (HCV 1a Y93H replicon; HCV genotype 1a, variant Y93H, EC50 relative to WT): 1,630
EC50 (HCV 1a Y93H replicon; [28]): 48 ± 1 nM
Fold change (HCV 1a Y93N replicon; HCV genotype 1a, variant Y93N, EC50 relative to WT): 3,876
EC50 (HCV 1a Y93N replicon; Hepatitis C virus, read-out: Mean EC50 (nM) ±SD, HCV genotype 1a, variant Y93N): > 100 nM
EC50 (HCV 1a Y93N replicon; read-out: Mean EC50 (nM) ±SD, HCV genotype 1a, variant Y93N): 113 ± 7.3 nM
Fold change (HCV 1a WT replicon; HCV genotype 1a, WT, EC50 relative to WT): 1
EC50 (HCV 1a WT replicon; [28]): 0.03 ± 0.002 nM
Fold change (HCV 4a NS5A WT replicon; HCV genotype 4a, WT, EC50 relative to WT): 1
EC50 (HCV 4a NS5A WT replicon; [28]): 0.02 ± 0.004 nM
EC50 (BVDV, HRV-16, Flu-B): > 3300 nM
EC50 [20]: 0.25 ng/mL
EC90 [20]: 0.92 ng/mL
EC50 ([20]; read-out: EC50 (nM) Mean ± SD): 0.3 ± 0.1 nM
EC90 ([20]; read-out: EC90 (nM) Mean ± SD): 1.1 ± 0.3 nM
CC50 (in vitro [21]): > 10000 nM
EC50 [22]: 0.95 ng/mL
EC90 [22]: 2.8 ng/mL
EC50 ([22]; read-out: EC50 (nM) Mean ± SD): 1.14 ± 0.3 nM
EC90 ([22]; read-out: EC90 (nM) Mean ± SD): 3.35 ± 1.3 nM
CC50 (in vitro [23]): > 3300 nM
EC50 [24]: 1040 nM
EC50 [25]: 0.04 ng/mL
EC90 [25]: 0.11 ng/mL
EC50 ([25]; read-out: EC50 (nM) Mean ± SD): 0.05 ± 0.01 nM
EC90 ([25]; read-out: EC90 (nM) Mean ± SD): 0.13 ± 0.015 nM
EC50 [26]: > 10000 nM
EC50 [27]: 0.06 ng/mL
EC90 [27]: 0.17 ng/mL
EC50 ([27]; read-out: EC50 (nM) Mean ± SD): 0.07 ± 0.02 nM
EC90 ([27]; read-out: EC90 (nM) Mean ± SD): 0.2 ± 0.05 nM

CNC(=O)c1c(-c2ccc(F)cc2)oc2cc(N(CCO)S(C)(=O)=O)c(C3CC3)cc12 [HCV-796]
EC50 [1]: 11.8 nM
